Results taken from patent US20240124504A1, “AROMATIC HETEROCYCLIC COMPOUND, AND PHARMACEUTICAL COMPOSITION AND APPLICATION THEREOF” (GT APEIRON THERAPEUTICS LIMITED, priority 2020, published 2024).

Legend:
[1] = molecular target: CDK7/cyclinH/MAT1 complex (Homo sapiens, UniProt P50613); assay: In-vitro enzymatic inhibitory activity testing, CDK7 inhibition assay (Caliper EZ Reader II); assay type: biochemical; conditions: CDK7/cyclinH/MAT1 6 nM, 180 min at 27° C.
Outline: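 Enzyme preincubated 10 min with compound, then peptide substrate plus ATP added in 80 mM MES pH 6.5, 10 mM MgCl2 buffer; 180 min at 27 °C, stopped with EDTA.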

CDK2/cyclinE1 complex = CDK2/cyclinE1 complex (Homo sapiens, UniProt P24941); assay: In-vitro enzymatic inhibitory activity testing, CDK2 inhibition assay (Caliper EZ Reader II); assay type: biochemical; conditions: CDK2/cyclinE1 0.5 nM, 180 min at 27° C.
Outline: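 CDK2/cyclinE1 (0.5 nM) phosphorylated 5-FAM-CDK7tide (2 μM) in MES buffer pH 6.5 with MgCl2, Tween 20 and BSA. Substrate and product were separated electrophoretically on a Caliper EZ Reader II. IC50 values came from nonlinear dose-response fits.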

CDK9/cyclinT1 complex = CDK9/cyclinT1 complex (Homo sapiens, UniProt P50750); assay: In-vitro enzymatic inhibitory activity testing, CDK9 inhibition assay (Caliper EZ Reader II); assay type: biochemical; conditions: CDK9/cyclinT1 8 nM, 180 min at 27° C.
Outline: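 Phosphorylated and unphosphorylated fluorescent peptide were resolved by mobility-shift electrophoresis, with IC50 taken from a nonlinear regression of dose-response data. Reactions ran 180 min at 27 °C in MES buffer pH 6.5 with MgCl2, after 10 min enzyme–compound preincubation, using 8 nM CDK9/cyclinT1 and 5-FAM-CDK9tide.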

[2] = molecular target: T1, CDK12 (aa686-1082)/cyclinK complex (Homo sapiens, UniProt Q9NYV4); assay: In-vitro enzymatic inhibitory activity testing, CDK12 inhibition assay (Caliper EZ Reader II); assay type: biochemical; conditions: CDK12/cyclinK 50 nM, 180 min at 27° C.; read-out: CDK12 IC50
T1 construct: A CDK12 (aa686-1082)/cyclinK complex (50 nM)
Outline: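 CDK12 (aa686-1082)/cyclinK complex at 50 nM was pre-incubated with compound for 10 min, then reacted 180 min at 27° C with ATP and 2 μM 5-FAM-CDK9tide in pH 6.5 MES buffer with 10 mM MgCl2. Reactions were EDTA-quenched and product resolved electrophoretically; IC50 from nonlinear curve fit.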

[3] = system: human breast cancer cells HCC70; assay: Cell biological activity detection (CyQuant, 72 hours), HCC70; assay type: cell-based; conditions: Homo sapiens, HCC70, 72 h, incubation for 72 hours
Outline: (§1)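 IC50 derived from CyQuant Direct nuclear staining (488 nm excitation) after 72 h compound exposure at 37 °C, 5% CO2. Compounds tested in 9 concentrations from 10 μM, 1:4 steps, 0.2% DMSO, on A2780 or HCC70 cells plated overnight at 2000/well in RPMI 1640 + 10% FBS.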

ovarian cancer A2780 = assay: Cell biological activity detection (CyQuant, 72 hours), A2780; assay type: cell-based, human; conditions: Homo sapiens, A2780, 72 h, A2780 cells, incubation for 72 hours
Outline: as §1

T1 sequence (Q9NYV4 686-1082, species assumed): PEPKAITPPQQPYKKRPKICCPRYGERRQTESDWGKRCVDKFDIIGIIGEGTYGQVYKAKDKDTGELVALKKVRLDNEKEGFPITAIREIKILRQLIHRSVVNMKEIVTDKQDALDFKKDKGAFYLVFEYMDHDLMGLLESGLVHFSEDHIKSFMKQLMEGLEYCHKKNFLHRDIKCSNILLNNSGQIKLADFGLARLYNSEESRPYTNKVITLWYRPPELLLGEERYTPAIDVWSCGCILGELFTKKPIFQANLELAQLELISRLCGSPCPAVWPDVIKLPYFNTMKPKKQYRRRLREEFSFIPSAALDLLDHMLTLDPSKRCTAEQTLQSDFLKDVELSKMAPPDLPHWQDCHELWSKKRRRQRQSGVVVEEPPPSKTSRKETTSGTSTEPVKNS
T1 sequence (O75909 whole entry partner, species assumed, the tested form may be a part): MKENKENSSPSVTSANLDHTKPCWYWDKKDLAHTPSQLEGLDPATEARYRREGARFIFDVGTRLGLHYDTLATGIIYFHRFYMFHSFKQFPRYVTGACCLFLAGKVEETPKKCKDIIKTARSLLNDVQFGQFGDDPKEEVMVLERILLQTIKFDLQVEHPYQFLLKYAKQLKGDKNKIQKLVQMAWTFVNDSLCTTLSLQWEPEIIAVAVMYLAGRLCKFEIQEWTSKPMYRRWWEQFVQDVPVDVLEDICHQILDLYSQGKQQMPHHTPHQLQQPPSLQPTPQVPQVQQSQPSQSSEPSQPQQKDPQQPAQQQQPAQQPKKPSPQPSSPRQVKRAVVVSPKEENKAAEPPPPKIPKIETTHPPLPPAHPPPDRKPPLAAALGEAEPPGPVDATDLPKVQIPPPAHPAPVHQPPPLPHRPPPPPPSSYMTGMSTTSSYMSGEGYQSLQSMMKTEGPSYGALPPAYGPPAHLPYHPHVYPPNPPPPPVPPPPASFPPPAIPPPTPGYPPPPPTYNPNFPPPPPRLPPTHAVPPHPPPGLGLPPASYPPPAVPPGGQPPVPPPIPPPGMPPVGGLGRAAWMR
Chain of CDK9/cyclinT1 complex (P50750 whole entry, species assumed): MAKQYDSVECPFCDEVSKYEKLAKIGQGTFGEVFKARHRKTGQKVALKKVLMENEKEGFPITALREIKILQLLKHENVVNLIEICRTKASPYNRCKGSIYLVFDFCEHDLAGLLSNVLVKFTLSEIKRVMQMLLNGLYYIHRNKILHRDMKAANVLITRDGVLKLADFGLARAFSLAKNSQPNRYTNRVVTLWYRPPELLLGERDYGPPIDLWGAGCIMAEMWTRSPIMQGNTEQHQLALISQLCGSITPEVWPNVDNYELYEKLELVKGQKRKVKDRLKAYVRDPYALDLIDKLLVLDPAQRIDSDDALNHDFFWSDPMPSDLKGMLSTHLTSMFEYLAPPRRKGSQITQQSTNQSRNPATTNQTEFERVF
Chain of CDK9/cyclinT1 complex (O60563 whole entry partner, species assumed): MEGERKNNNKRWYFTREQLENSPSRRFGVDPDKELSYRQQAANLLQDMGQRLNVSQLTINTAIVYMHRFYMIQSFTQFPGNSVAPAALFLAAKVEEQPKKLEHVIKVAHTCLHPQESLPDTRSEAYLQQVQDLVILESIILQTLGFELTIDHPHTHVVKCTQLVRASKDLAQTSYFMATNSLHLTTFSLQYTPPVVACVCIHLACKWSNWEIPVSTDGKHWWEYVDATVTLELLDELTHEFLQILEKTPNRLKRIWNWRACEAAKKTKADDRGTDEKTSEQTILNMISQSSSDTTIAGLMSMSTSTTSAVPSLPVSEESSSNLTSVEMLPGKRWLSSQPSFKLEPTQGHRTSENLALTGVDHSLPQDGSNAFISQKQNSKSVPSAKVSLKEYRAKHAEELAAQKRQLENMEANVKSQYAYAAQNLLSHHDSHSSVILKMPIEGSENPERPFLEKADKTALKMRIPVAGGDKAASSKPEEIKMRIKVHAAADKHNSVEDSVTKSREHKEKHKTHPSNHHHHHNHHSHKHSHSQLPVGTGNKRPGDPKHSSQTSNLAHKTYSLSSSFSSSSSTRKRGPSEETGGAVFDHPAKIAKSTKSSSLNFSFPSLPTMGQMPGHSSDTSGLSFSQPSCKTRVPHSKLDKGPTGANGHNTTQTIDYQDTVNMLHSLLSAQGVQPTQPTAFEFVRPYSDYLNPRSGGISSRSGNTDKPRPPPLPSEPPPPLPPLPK
Chain of CDK7/cyclinH/MAT1 complex (P50613 whole entry, species assumed): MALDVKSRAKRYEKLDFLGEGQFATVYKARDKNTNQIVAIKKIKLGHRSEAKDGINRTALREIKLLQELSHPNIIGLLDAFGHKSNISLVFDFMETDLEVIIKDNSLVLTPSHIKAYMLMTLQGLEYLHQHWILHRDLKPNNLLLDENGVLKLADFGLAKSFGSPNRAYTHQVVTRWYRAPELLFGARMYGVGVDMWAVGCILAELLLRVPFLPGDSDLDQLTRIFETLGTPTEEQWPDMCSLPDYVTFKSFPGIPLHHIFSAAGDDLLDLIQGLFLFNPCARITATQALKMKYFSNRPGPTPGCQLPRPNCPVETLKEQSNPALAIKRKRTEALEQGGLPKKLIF
Chain of CDK7/cyclinH/MAT1 complex (P51946 whole entry partner, species assumed): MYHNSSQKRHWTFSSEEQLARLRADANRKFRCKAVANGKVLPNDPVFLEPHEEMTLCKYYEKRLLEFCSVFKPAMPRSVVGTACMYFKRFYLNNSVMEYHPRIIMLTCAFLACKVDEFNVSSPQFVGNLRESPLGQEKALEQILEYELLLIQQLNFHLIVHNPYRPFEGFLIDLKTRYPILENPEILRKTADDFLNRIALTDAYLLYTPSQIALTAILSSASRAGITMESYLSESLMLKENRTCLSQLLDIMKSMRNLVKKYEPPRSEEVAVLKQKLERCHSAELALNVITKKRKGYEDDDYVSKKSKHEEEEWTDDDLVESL
Chain of CDK7/cyclinH/MAT1 complex (P51948 whole entry partner, species assumed): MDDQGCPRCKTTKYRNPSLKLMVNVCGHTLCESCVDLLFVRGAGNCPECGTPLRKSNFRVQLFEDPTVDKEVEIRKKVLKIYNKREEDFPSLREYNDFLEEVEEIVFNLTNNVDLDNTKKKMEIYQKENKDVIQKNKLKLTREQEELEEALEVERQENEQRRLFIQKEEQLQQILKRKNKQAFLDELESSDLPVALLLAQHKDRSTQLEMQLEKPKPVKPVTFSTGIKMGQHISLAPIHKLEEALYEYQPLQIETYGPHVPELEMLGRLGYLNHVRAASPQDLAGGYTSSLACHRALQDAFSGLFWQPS

SMILES | IC50 [1] [nM] | IC50 (CDK2/cyclinE1 complex) [nM] | IC50 (CDK9/cyclinT1 complex) [nM] | IC50 [2] [nM] | IC50 (ovarian cancer A2780) [nM] | IC50 [3] [nM]
CN(C)[C@H]1CC[C@H](Nc2ncc(C(F)(F)F)c(-c3c[nH]c4nc(C#N)ccc34)n2)C1 [Compound 66] | 20 to 200 | 200 to 5000 | 5000 to 50000 | 200 to 5000 | 20 to 200 | < 20
C[C@H]1COCCN1c1ccc2c(-c3nc(N[C@H]4CC[C@@H](N)C4)ncc3C(F)(F)F)c[nH]c2n1 [Compound 68, (1S,3R)—N1-(4-(6-((S)-3-methylmorpholinyl)-1H-pyrrolo[2,3-b]pyridin-3-yl)-5-(trifluoromethyl)pyrimidin-2-yl)cyclopentan-1,3-diamine] | 20 to 200 | 5000 to 50000 | 5000 to 50000 | 5000 to 50000 | 200 to 5000 | 200 to 5000
CC1(C)COCC(Nc2ncc(C(F)(F)F)c(-c3c[nH]c4c(P(C)(C)=O)c(C#N)ccc34)n2)CN1 (stereo not drawn) [Compound 76, 3-(2-((3,3-dimethyl-1,4-oxazepan-6-yl)amino)-5-(trifluoromethyl)pyrimidin-4-yl)-7-(dimethylphosphoryl)-1H-indole-6-carbonitrile] | 20 to 200 | > 50000 | > 50000 | > 50000 | 20 to 200 | 20 to 200
CP(C)(=O)c1c(C#N)ccc2c(-c3nc(N[C@@H]4CCC45CNC5)ncc3C(F)(F)F)c[nH]c12 [Compound 77, (R)-3-(2-((2-azaspiro[3.3]heptan-5-yl)amino)-5-(trifluoromethyl)pyrimidin-4-yl)-7-(dimethylphosphoryl)-1H-indole-6-carbonitrile] | 20 to 200 | > 50000 | > 50000 | > 50000 | 20 to 200 | 20 to 200
CP(C)(=O)c1cccc2c(-c3nc(NCC4(O)CCC4)ncc3C(F)(F)F)c[nH]c12 [Compound 90] | 20 to 200 | 5000 to 50000 | 5000 to 50000 | > 50000 | 20 to 200 | 20 to 200
FC(F)(F)c1cnc(N[C@H]2CCCNC2)nc1-c1c[nH]c2cc(N3CCCC3)ccc12 [Compound 101, (S)—N-(piperidin-3-yl)-4-(6-(pyrrolidin-1-yl)-1H-indole-3-yl)-5-(trifluoromethyl)pyrimidin-2-amine, reference compound] | 20 to 200 | 5000 to 50000 | 200 to 5000 | 200 to 5000 | 20 to 200 | 200 to 5000
CC(C)[C@@H](CO)Nc1ncc(C(F)(F)F)c(-c2c[nH]c3c(P(C)(C)=O)cccc23)n1 [Compound 115, (S)-(3-(2-((1-hydroxy-3-methylbutan-2-yl)amino)-5-(trifluoromethyl)pyrimidin-4-yl)-1H-indole-7-yl)dimethylphosphine oxide] | 20 to 200 | 5000 to 50000 | > 50000 | > 50000 | 20 to 200 | 20 to 200
CP(C)(=O)c1cccc2c(-c3nc(NC4(CO)CCCC4)ncc3C(F)(F)F)c[nH]c12 [Compound 116, (3-(2-((1-(hydroxymethyl)cyclopentyl)amino)-5-(trifluoromethyl)pyrimidin-4-yl)-1H-indole-7-yl)dimethylphosphine oxide] | 20 to 200 | 5000 to 50000 | > 50000 | > 50000 | 20 to 200 | 20 to 200
CP(C)(=O)c1cccc2c(-c3nc(NC[C@H]4C[C@H]4CO)ncc3C(F)(F)F)c[nH]c12 [Compound 141, (3-(2-((((1S,2R)-2-(hydroxymethyl)cyclopropyl)methyl)amino)-5-(trifluoromethyl)pyrimidin-4-yl)-1H-indole-7-yl)dimethylphosphine oxide] | < 20 | 200 to 5000 | > 50000 | > 50000 | 20 to 200 | 20 to 200
CP(C)(=O)c1cccc2c(-c3nc(NCC(O)C(F)(F)F)ncc3C(F)(F)F)c[nH]c12 (stereo not drawn) [Compound 145, Dimethyl(3-(2-((3,3,3-trifluoro-2-hydroxypropyl)amino)-5-(trifluoromethyl)pyrimidin-4-yl)-1H-indole-7-yl)phosphine oxide] | 20 to 200 | > 50000 | > 50000 | > 50000 | 20 to 200 | 20 to 200
CP(C)(=O)c1cccc2c(-c3nc(NCC4(O)CCCC4)ncc3C(F)(F)F)c[nH]c12 [Compound 151] | 20 to 200 | 5000 to 50000 | > 50000 | > 50000 | 20 to 200 | 20 to 200
CP(C)(=O)c1cccc2c(-c3nc(N[C@@H](CO)C4CC4)ncc3C(F)(F)F)c[nH]c12 [Compound 159, (R)-(3-(2-((1-cyclopropyl-2-hydroxyethyl)amino)-5-(trifluoromethyl)pyrimidin-4-yl)-1H-indole-7-yl)dimethylphosphine oxide] | < 20 | 5000 to 50000 | > 50000 | > 50000 | 20 to 200 | 20 to 200
CP(C)(=O)c1cccc2c(-c3nc(NCC4(CO)CC4)ncc3C(F)(F)F)c[nH]c12 [Compound 160] | 20 to 200 | 5000 to 50000 | > 50000 | > 50000 | 200 to 5000 | 200 to 5000

The next lines start with results.

IC50 [1] [nM] | IC50 (CDK2/cyclinE1 complex) [nM] | IC50 (CDK9/cyclinT1 complex) [nM] | IC50 [2] [nM] | IC50 (ovarian cancer A2780) [nM] | SMILES | IC50 [3] [nM]
< 20 | 5000 to 50000 | 5000 to 50000 | 5000 to 50000 | 20 to 200 | C[C@H]1COCCN1c1ccc2c(-c3nc(N[C@@H]4CCC45CNC5)ncc3C(F)(F)F)c[nH]c2n1 [Compound 67, (R)—N-(4-(6-((S)-3-methylmorpholine)-1H-pyrrolo[2,3-b]pyridin-3-yl)-5-(trifluoromethyl)pyrimidin-2-yl)-2-azaspiro[3.3]heptan-5-amine] | 20 to 200
< 20 | 5000 to 50000 | 5000 to 50000 | 5000 to 50000 | < 20 | CP(C)(=O)c1c(C#N)ccc2c(-c3nc(N[C@H]4CC[C@H](N)C4)ncc3C(F)(F)F)c[nH]c12 [Compound 78, 3-(2-(((1S,3S)-3-aminocyclopentyl)amino)-5-(trifluoromethyl)pyrimidin-4-yl)-7-(dimethylphosphoryl)-1H-indole-6-carbonitrile] | < 20
< 20 | 200 to 5000 | 5000 to 50000 | 5000 to 50000 | < 20 | CP(C)(=O)c1cccc2c(-c3nc(N[C@@H]4CCC45CNC5)ncc3C(F)(F)F)c[nH]c12 [Compound 80] | < 20
< 20 | 200 to 5000 | 200 to 5000 | 200 to 5000 | < 20 | CP(C)(=O)c1cccc2c(-c3nc(N[C@H]4CC[C@H](N)C4)ncc3C(F)(F)F)c[nH]c12 [Compound 81] | < 20
< 20 | 20 to 200 | 5000 to 50000 | 200 to 5000 | < 20 | CP(C)(=O)c1cccc2c(-c3nc(Nc4cn[nH]c4)ncc3C(F)(F)F)c[nH]c12 [Compound 84, (3-(2-((1H-pyrazol-4-yl)amino)-5-(trifluoromethyl)pyrimidin-4-yl)-1H-indole-7-yl)dimethylphosphine oxide] | < 20
< 20 | 5000 to 50000 | > 50000 | > 50000 | 20 to 200 | CC(C)(O)CNc1ncc(C(F)(F)F)c(-c2c[nH]c3c(P(C)(C)=O)cccc23)n1 [Compound 95, (3-(2-((2-hydroxy-2-methylpropyl)amino)-5-(trifluoromethyl)pyrimidin-4-yl)-1H-indole-7-yl)dimethylphosphine oxide] | 20 to 200
< 20 | 200 to 5000 | 5000 to 50000 | 200 to 5000 | < 20 | CP(C)(=O)c1cccc2c(-c3nc(N[C@@H]4CC[C@@]5(CCNC5)C4)ncc3C(F)(F)F)c[nH]c12 [Compound 99, (3-(2-(((5R,7R)-2-azaspiro[4.4]non-7-yl)amino)-5-(trifluoromethyl)pyrimidin-4-yl)-1H-indole-7-yl)dimethylphosphine oxide] | < 20
< 20 | 5000 to 50000 | > 50000 | > 50000 | < 20 | CP(C)(=O)c1cccc2c(-c3nc(NC4(CO)CCOC4)ncc3C(F)(F)F)c[nH]c12 (stereo not drawn) [Compound 117, (3-(2-((3-(hydroxymethyl)tetrahydrofuran-3-yl)amino)-5-(trifluoromethyl)pyrimidin-4-yl)-1H-indole-7-yl)dimethylphosphine oxide] | < 20
